Measured values published in PubChem BioAssay (NCI).
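Growth conditions: 96-well plates. Treatment: test compound, 48 hours, 5 concentrations. Analysis: linear interpolation between bracketing concentrations; unreached endpoints set to highest concentration. Abbreviation: GI50, concentration required for 50% inhibition of growth. TGI denotes the concentration required for complete inhibition of growth.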

What was measured:
Test in all cases: NCI-60 cell line screen, 48 h
[1] = system: HCC-2998 colon
[2] = system: NCI-H23 lung
[3] = system: COLO 205 colon
[4] = system: KM12 colon
[5] = system: MOLT-4 leukemia
[6] = system: SK-MEL-2 melanoma
[7] = system: NCI/ADR-RES ovarian
[8] = system: CCRF-CEM leukemia
[9] = system: MCF7 breast
[10] = system: OVCAR-3 ovarian
[11] = system: SNB-19 CNS
[12] = system: K-562 leukemia
[13] = system: OVCAR-5 ovarian
[14] = system: HT29 colon
[15] = system: A549 NSCLC
[16] = system: BT-549 breast
[17] = system: UACC-257 melanoma
[18] = system: HOP-92 NSCLC
[19] = system: RPMI-8226 leukemia
[20] = system: NCI-H522 lung
[21] = system: M14 melanoma
[22] = system: IGROV1 ovarian
[23] = system: TK-10 renal
[24] = system: HS 578T breast
[25] = system: RXF 393 renal
[26] = system: ACHN renal
[27] = system: DU-145 prostate
[28] = system: SW-620 colon
[29] = system: MDA-MB-231 breast
[30] = system: UO-31 renal
[31] = system: MALME-3M melanoma
[32] = system: HL-60(TB) leukemia
[33] = system: SNB-75 CNS
[34] = system: OVCAR-4 ovarian
[35] = system: HOP-62 NSCLC
[36] = system: T-47D breast
[37] = system: SK-MEL-28 melanoma
[38] = system: NCI-H226 lung
[39] = system: 786-0 renal
[40] = system: SF-295 CNS
[41] = system: SK-OV-3 ovarian
[42] = system: U251 CNS
[43] = system: UACC-62 melanoma
[44] = system: PC-3 prostate
[45] = system: HCT-116 colon
[46] = system: LOX IMVI melanoma
[47] = system: EKVX NSCLC
[48] = system: OVCAR-8 ovarian
[49] = system: SN12C renal
[50] = system: CAKI-1 renal
[51] = system: MDA-MB-435
[52] = system: SF-539 CNS
[53] = system: HCT-15 colon
[54] = system: SK-MEL-5 melanoma
[55] = system: NCI-H460 lung
[56] = system: SR leukemia
[57] = system: SF-268 CNS
[58] = system: A498 renal

For `CN(C)CCCOc1ccccc1NC1=C(Cl)C(=O)C(Nc2ccccc2OCCCN(C)C)=C(Cl)C1=O`, which GI50 [1] is on record?
Its GI50 is 0.604 µM.

And the TGI [1]?
The TGI was 1.31 µM.

What about the GI50 [2] of the same compound?
Its GI50 is 0.57 µM.

And the TGI [2]?
The TGI was 1.38 µM.

What about the GI50 [3] of the same compound?
Its GI50 is 0.194 µM.

And the TGI [3]?
Its TGI is 0.399 µM.

What about the GI50 [4] of the same compound?
The GI50 was 0.762 µM.

What about the TGI [4] of the same compound?
Its TGI is 2.2 µM.

And the GI50 [5]?
The GI50 was 0.223 µM.

And the TGI [5]?
Its TGI is 0.578 µM.

And the GI50 [6]?
The GI50 was 1.83 µM.

What about the TGI [6] of the same compound?
Its TGI is 3.58 µM.

What about the GI50 [7] of the same compound?
Its GI50 is 3.29 µM.

And the TGI [7]?
The TGI was 12.7 µM.

What about the GI50 [8] of the same compound?
Its GI50 is 0.262 µM.

And the TGI [8]?
The TGI was 1.3 µM.

And the GI50 [9]?
The GI50 was 0.175 µM.

And the TGI [9]?
The TGI was 0.398 µM.

What about the GI50 [10] of the same compound?
The GI50 was 0.172 µM.

And the TGI [10]?
The TGI was 0.319 µM.

And the GI50 [11]?
Its GI50 is 1.57 µM.

What about the TGI [11] of the same compound?
Its TGI is 3.02 µM.

What about the GI50 [12] of the same compound?
The GI50 was 0.274 µM.

What about the TGI [12] of the same compound?
The TGI was 0.793 µM.

And the GI50 [13]?
Its GI50 is 1.4 µM.

What about the TGI [13] of the same compound?
The TGI was 2.84 µM.

And the GI50 [14]?
The GI50 was 0.253 µM.

What about the TGI [14] of the same compound?
Its TGI is 0.584 µM.

And the GI50 [15]?
The GI50 was 1.51 µM.

And the TGI [15]?
Its TGI is 2.94 µM.

And the GI50 [16]?
The GI50 was 1.62 µM.

What about the TGI [16] of the same compound?
Its TGI is 2.99 µM.

And the GI50 [17]?
Its GI50 is 1.17 µM.

And the TGI [17]?
Its TGI is 2.69 µM.

What about the GI50 [18] of the same compound?
Its GI50 is 1.33 µM.

And the TGI [18]?
Its TGI is 2.82 µM.

What about the GI50 [19] of the same compound?
Its GI50 is 2.01 µM.

And the TGI [19]?
The TGI was 5.07 µM.

And the GI50 [20]?
The GI50 was 0.17 µM.

What about the TGI [20] of the same compound?
Its TGI is 0.383 µM.

What about the GI50 [21] of the same compound?
The GI50 was 1.6 µM.

And the TGI [21]?
Its TGI is 3.16 µM.

And the GI50 [22]?
Its GI50 is 0.355 µM.

And the TGI [22]?
Its TGI is 0.969 µM.

And the GI50 [23]?
The GI50 was 1.93 µM.

What about the TGI [23] of the same compound?
Its TGI is 3.36 µM.

And the GI50 [24]?
Its GI50 is 1.83 µM.

What about the TGI [24] of the same compound?
Its TGI is 5.46 µM.

What about the GI50 [25] of the same compound?
Its GI50 is 1.17 µM.

And the TGI [25]?
Its TGI is 2.43 µM.

What about the GI50 [26] of the same compound?
Its GI50 is 0.941 µM.

And the TGI [26]?
The TGI was 2.13 µM.

What about the GI50 [27] of the same compound?
The GI50 was 0.709 µM.

What about the TGI [27] of the same compound?
The TGI was 1.77 µM.

And the GI50 [28]?
The GI50 was 0.207 µM.

What about the TGI [28] of the same compound?
The TGI was 0.415 µM.

What about the GI50 [29] of the same compound?
Its GI50 is 0.511 µM.

And the TGI [29]?
The TGI was 1.4 µM.

And the GI50 [30]?
The GI50 was 1.21 µM.

What about the TGI [30] of the same compound?
The TGI was 2.46 µM.

And the GI50 [31]?
Its GI50 is 0.923 µM.

What about the TGI [31] of the same compound?
The TGI was 2.43 µM.

And the GI50 [32]?
Its GI50 is 0.244 µM.

And the TGI [32]?
The TGI was 0.656 µM.

What about the GI50 [33] of the same compound?
The GI50 was 1.62 µM.

And the TGI [33]?
Its TGI is 3.02 µM.

And the GI50 [34]?
Its GI50 is 0.136 µM.

And the TGI [34]?
Its TGI is 0.265 µM.

What about the GI50 [35] of the same compound?
Its GI50 is 1.66 µM.

What about the TGI [35] of the same compound?
Its TGI is 3.31 µM.

And the GI50 [36]?
The GI50 was 0.209 µM.

And the TGI [36]?
Its TGI is 0.591 µM.

What about the GI50 [37] of the same compound?
Its GI50 is 1.72 µM.

And the TGI [37]?
Its TGI is 3.13 µM.

What about the GI50 [38] of the same compound?
The GI50 was 1.98 µM.

And the TGI [38]?
Its TGI is 4.22 µM.

What about the GI50 [39] of the same compound?
The GI50 was 0.661 µM.

What about the TGI [39] of the same compound?
The TGI was 1.91 µM.

What about the GI50 [40] of the same compound?
The GI50 was 1.53 µM.

And the TGI [40]?
Its TGI is 2.9 µM.

What about the GI50 [41] of the same compound?
Its GI50 is 1.66 µM.

And the TGI [41]?
The TGI was 3.02 µM.

What about the GI50 [42] of the same compound?
Its GI50 is 0.611 µM.

And the TGI [42]?
The TGI was 1.3 µM.

And the GI50 [43]?
The GI50 was 1.58 µM.

What about the TGI [43] of the same compound?
Its TGI is 3.05 µM.

And the GI50 [44]?
Its GI50 is 0.696 µM.

What about the TGI [44] of the same compound?
The TGI was 2.19 µM.

And the GI50 [45]?
Its GI50 is 0.183 µM.

What about the TGI [45] of the same compound?
Its TGI is 0.356 µM.

And the GI50 [46]?
Its GI50 is 0.18 µM.

What about the TGI [46] of the same compound?
Its TGI is 0.355 µM.

What about the GI50 [47] of the same compound?
Its GI50 is 0.693 µM.

What about the TGI [47] of the same compound?
Its TGI is 1.97 µM.

What about the GI50 [48] of the same compound?
Its GI50 is 0.301 µM.

And the TGI [48]?
Its TGI is 0.9 µM.

What about the GI50 [49] of the same compound?
Its GI50 is 0.165 µM.

What about the TGI [49] of the same compound?
Its TGI is 0.319 µM.

And the GI50 [50]?
Its GI50 is 1.07 µM.

And the TGI [50]?
The TGI was 2.27 µM.

And the GI50 [51]?
The GI50 was 0.636 µM.

And the TGI [51]?
Its TGI is 1.44 µM.

What about the GI50 [52] of the same compound?
The GI50 was 1.66 µM.

What about the TGI [52] of the same compound?
The TGI was 3.04 µM.

And the GI50 [53]?
The GI50 was 0.749 µM.

And the TGI [53]?
Its TGI is 2.18 µM.

What about the GI50 [54] of the same compound?
Its GI50 is 1.35 µM.

And the TGI [54]?
Its TGI is 2.65 µM.

And the GI50 [55]?
Its GI50 is 1.32 µM.

What about the TGI [55] of the same compound?
Its TGI is 2.85 µM.

What about the GI50 [56] of the same compound?
Its GI50 is 0.837 µM.

And the TGI [56]?
Its TGI is 5.47 µM.

And the GI50 [57]?
The GI50 was 1.03 µM.

What about the TGI [57] of the same compound?
Its TGI is 2.61 µM.

And the GI50 [58]?
The GI50 was 1.84 µM.

What about the TGI [58] of the same compound?
Its TGI is 5.6 µM.
